Results published in paper PMC10514136, “Peptide-conjugated antimiRs improve myotonic dystrophy type 1 phenotypes by promoting endogenous MBNL1 expression” (Molecular Therapy. Nucleic Acids, 2023).

Legend:
[1] = system: MBNL1 protein levels in DM1 cells; test: MBNL1 protein levels by QDB in DM1 cells after gymnotic delivery; assay type: cell-based, human; conditions: for MBNL1 protein levels vs untreated DM1 cells: gymnosis at the EC50 concentration of each compound; for MBNL1 fold change: gymnotic delivery
Description: Immortalized MyoD-inducible (doxycycline) DM1 and control fibroblasts were kindly provided by Dr Furling (Institute of Myology, Paris, France).[38] For the activity assay, cells were seeded in 6-well plates at a density of 8 × 10^4 cells/well and grown in DMEM with 4.5 g/L glucose, 1% P/S, and 10% FBS (Sigma, St. Louis, MO). To transdifferentiate fibroblasts into myoblasts by inducing MyoD expression, the cells were plated in muscle differentiation medium containing DMEM with 4.5 g L^−1 glucose, 1% P/S, 2% horse serum, 1% apo-transferrin (10 mg mL^−1), 0.1% insulin (10 mg mL^−1), and 0.02% doxycycline (10 mg mL^−1). In all cases, the cells were grown at 37°C in a humidified atmosphere containing 5% CO2. Transdifferentiation was induced at day 0, and transfection was performed by lipofection with X-tremeGENE HP (Roche, Basel, Switzerland) 24 h later, with antimiRs and test compounds in the cell medium at different concentrations (from 0.4 nM to 5 μM). The medium was replaced with fresh differentiation medium 4 h afterward. In the gymnosis assay, test compounds were added to the culture medium only at the corresponding EC50 concentration. Cells were collected on day 4 of differentiation and were processed for protein extraction.
A 96-well plate QDB assay was used[87] to determine MBNL1 protein levels in all replicates and concentrations of each ON tested. This technique allows for high-throughput screening of low protein concentration samples over conventional western blot (WB) (Figure S9).[88] Cell samples (1 μg/well) and mice samples (2 μg/well) were prepared with 4× loading buffer, denatured (100°C for 5 min) and loaded in QDB plates (Quanticision Diagnostics, Research Triangle Park, NC). For the quantification of in vitro samples, the QDB was performed exactly as described in Moreno et al.[87] Each cell sample was loaded in quadruplicate in two different plates; one was used to detect MBNL1 (it was incubated overnight with primary mouse anti-MBNL1 [1:1,000, Abcam, ab77017]) and the other for GAPDH (it was incubated overnight with primary mouse anti-GAPDH [1:500, Santa Cruz, clone G-9]), which was used here as an endogenous control. For Mbnl1 quantification in mouse muscle tissues, we implemented the following modifications: each sample was loaded in quadruplicate on three different plates. One was used to detect Mbnl1 with a mouse MB1a(4A8) antibody (DSHB, Iowa City, IA) using a 1:200 dilution. A second plate was used to quantify tubulin (endogenous normalization control) with a mouse 12G10 antibody (DSHB) using a 1:1,000 dilution. A third plate was used to quantify IgG signal (negative control to subtract background) using an anti-mouse-IgG secondary antibody (Sigma-Aldrich) at 1:3,500 dilution. This subtraction was necessary due to an unspecific IgG signal could be observed in mouse samples (Figures S10A–S10D). All primary antibodies were detected using horseradish peroxidase-conjugated anti-mouse-IgG secondary antibody (1:5,000 for the anti-mouse plate, 1:2,000 for cell plates, and 1:3,500 for mouse plates [Sigma-Aldrich, MO]). Immunoreactive bands were detected using Pierce ECL Western reagent (Thermo Scientific), and luminescence levels were determined using an Infinite M200 PRO plate reader (Tecan). The validity of this correction for QDB quantification of mouse samples was confirmed by performing a series of experiments determining both the window of linearity of the assay (2–5 μg protein, Figures S10A–S10B) and the comparison with data obtained by WB in a subset of samples (Figures S10E–S10H), obtaining a correlation of 0.9927 for MBNL1 and 0.8678 for tubulin (in the case of quadriceps), and 0.9821 for MBNL1 and 0.9699 for tubulin (in gastrocnemius). For WB assay in quadriceps (Figure S10I), samples were loaded in pools of each treatment to have a representative WB of all the treatments tested. WB assay was performed as described previously.[20]

Mbnl2 mRNA = test: Mbnl2 transcript levels in muscle by qRT-PCR; assay type: in vivo, mouse; conditions: HSALR mice, 9.2 mg/kg (mean) i.v. every 2 weeks x3, day 45; gastrocnemius, vs PBS-treated HSALR
Description: Total RNA from murine gastrocnemius and quadriceps muscle was isolated using the miRNeasy Mini Kit (QIAGEN, Hilden, Germany) according to the manufacturer's instructions. One microgram of RNA was digested with DNase I (Invitrogen, Carlsbad, CA) and reverse transcribed with SuperScript II (Invitrogen) using random hexanucleotides. For subsequent PCR reactions, 20 ng of cDNA was used with GoTaq polymerase (Promega). Specific primers were used to analyze the alternative splicing of Nfix, Atp2a1, and Clcn1 in mouse samples (both muscles). Gapdh levels established the endogenous reference levels using 0.2 ng of cDNA. […] PSR index was defined as value%SI minus X %DSI , divided by […] (SI, splicing inclusion of each sample; DSI, disease splicing inclusion; HSI, healthy splicing inclusion). Overall, PSR indicates the amount in both muscles analyzed. […] Commercial TaqMan probes (QIAGEN) were used for mouse (Mbnl1 and Mbnl2; FAM-labeled probes) and reference (GAPDH; MAX-labeled probe) genes. Results were normalized to Gapdh endogenous gene expression. Expression levels were measured using a QuantStudio 5 Real-Time PCR System (Applied Biosystems, Foster City, CA). […] Mouse handling and experimental procedures followed the European law regarding laboratory animal care and experimentation (2003/65/C.E.) and were approved by Conselleria de Agricultura, […] […]

Substance	MBNL1 protein levels vs untreated DM1 cells [1]	MBNL1 fold change ([1]; 200 nM)	MBNL1 fold change ([1]; 1 μM)	relative expression of Mbnl2 (Mbnl2 mRNA)	MBNL1 levels, gymnosis compared with transfection ([1]; each compound at its EC50 concentration)
6aKC-23b (antisense GGUAAUCCCUGGCAAUGUGAU; all phosphorodiamidate morpholino (PMO), T or U not given here; Pip6aKC peptide conjugated)	significant increases observed in MBNL1 protein levels	~2.5 fold			
6aKC-218 (antisense ACAUGGUUAGAUCAAGCACAA; all phosphorodiamidate morpholino (PMO), T or U not given here; Pip6aKC peptide conjugated)	significant increases observed in MBNL1 protein levels		~2 fold		
9b2-218 (antisense ACAUGGUUAGAUCAAGCACAA; all phosphorodiamidate morpholino (PMO), T or U not given here; Pip9b2 peptide conjugated)	significant increases observed in MBNL1 protein levels				
9b2KC-23b (antisense GGUAAUCCCUGGCAAUGUGAU; all phosphorodiamidate morpholino (PMO), T or U not given here; Pip9b2KC peptide conjugated)				2.65 fold	identical MBNL1 modulation results by transfection and gymnosis
